# Patent publication US8101605B2, “SHIP1 modulators and methods related thereto” (Aquinox Pharmaceuticals Inc., priority 2009, dated 2012)
# Key:
# [1] = system: allergen-induced passive cutaneous anaphylaxis; assay: Passive cutaneous anaphylaxis in mice; type: in vivo; conditions: oral gavage, doses less than 20 mg/kg
# Method: The activity of representative compounds on passive cutaneous anaphylaxis in mice was evaluated according to the procedures disclosed by Ovary, J Immunol 81, 355-357, 1958 and Halpern et al., Br J Pharmacol Chemother 20, 389-398, 1963, both of which are incorporated herein by reference in their entirety. To induce a passive cutaneous anaphylaxis, mice underwent intradermal ear inoculation on their right ear with 25 ng in 20 μL of anti-DNP-IgE. The left ears were untreated and served as negative controls. Twenty-four hours after inoculation, all mice were administered test compound by oral gavage (PO). Sixty minutes after oral administration, mice were given a tail vein injection of 2% Evan's blue (0.2 μm filtered, in 200 μL saline) followed by a second tail IV injection of 100 μg DNP-HSA (in 200 μL). Sixty minutes following the DNP-HSA injection, mice were euthanized using CO2 inhalation. Subsequently, ear biopsies were performed by taking four millimetre punches from both ears, which then underwent Evan's Blue extraction using formamide incubation in 96 well plates. Eighty μL of eluents were transferred to flat-bottom 96-well plates and absorbance read using SpectraMax M5 spectrophotometer (Molecular Devices, Sunnyvale, Calif., USA) at 620 nm. Background readings from all samples were taken at 740 nm and subtracted from the 620 nm readings. Data were reported as OD. […] Scoring in Table 4 is expressed as follows: + (1-30% inhibition); ++ (31-50% inhibition); +++ (>50% inhibition).
# [2] = system: allergen-induced passive cutaneous anaphylaxis; assay: Passive cutaneous anaphylaxis in rats; type: in vivo; conditions: oral gavage
# Method: The activity of representative compounds on passive cutaneous anaphylaxis in rats was evaluated according to the procedures disclosed by Goose et al., Immunology 16, 749-760, 1969, which is incorporated herein by reference in its entirety. To induce a passive cutaneous anaphylaxis, rats underwent dorsal intradermal inoculation with 50 μL of anti-ovalbumin-IgE. Sixteen hours after inoculation, all rats were administered test compound by oral gavage (PO). Sixty minutes after oral administration, rats were given a tail vein injection of 5 mg Evan's blue and 1 mg ovalbumin. Sixty minutes following the ovalbumin injection, rats were euthanized using CO2 inhalation. Subsequently, skin edema was visualized, measured and scored. When tested in this assay, representative Compound.
# [3] = system: Akt phosphorylation in Jurkat (PTEN−/SHIP1−) cells; assay: Akt phosphorylation in IGF-1 stimulated Jurkat lymphocytes (western blot); type: cell-based; set-up: key: +: inhibits Akt phosphorylation at 10 μM; −: no effect on Akt phosphorylation at 10 μM; conditions: 10 μM; IGF-1 stimulation
# Method: Jurkat (PTEN−/SHIP1−) or Molt-4 (PTEN−/SHIP1+) cells were starved in serum free RPMI for overnight. In a 15 mL conical tube, 2-3 million serum starved cells (1 million cells per mL) were treated with various concentrations of test compound (0.1, 1, or 10 μM final in 0.1% DMSO) for 30 min at 37° C. followed by stimulation with 100 ng/mL of IGF-1 for 1 hour at 37° C. After stimulation, cells were washed once with ice-cold DPBS and lysed with Lysis Buffer (20 mM Tris-HCl, pH 7.5, 140 mM NaCl, 1% NP-40, Complete Mini Protease Inhibitor Cocktail, 10 mM NaF, 1 mM Na3VO4, 1 mM β-glycerolphosphate) on ice for 30 min with vortexing every 10 min. Samples were then centrifuged at 13,000 rpm for 20 min, and supernatants were collected as total cell lysate samples. Protein concentration was determined using bicinchonic acid assay, and about 15 μg of total protein from each sample was loaded and separated on a 4-12% Tris-Glycine gel. After SDS-PAGE, proteins were transferred from the gel to a nitrocellulose membrane. The membrane was blocked in 5% BSA in PBS containing 0.1% Tween-20 (PBS-T) for 1 hour at room temperature before probing with primary antibodies for overnight at 4° C. The following antibodies were used: mouse anti-SHIP1 (1:500 dilution; Santa Cruz, Calif., USA), rabbit anti-phospho-Akt(Ser473) (1:1000 dilution; Cell Signaling Technologies, MA, USA), rabbit anti-Akt (1:1000; Cell Signaling Technologies, MA, USA), and rabbit anti-actin (1:2000; Cell Signaling Technologies, MA, USA). The membrane was then incubated with goat anti-rabbit or anti-mouse secondary antibodies (1:3000) for 1 hour at room temperature. Target proteins on the membrane were detected with ECL solution and exposed on a film.
# Scoring in Table 3 is expressed as follows: + (inhibits Akt phosphorylation at 10 μM); − (no effect on Akt phosphorylation at 10 μM).
SMILES,Scoring: inhibition of passive cutaneous anaphylaxis [1],inhibition of allergen-induced passive cutaneous anaphylaxis ([2]; 30 mg/kg) [%],inhibition of allergen-induced passive cutaneous anaphylaxis ([2]; 100 mg/kg) [%],"Akt phosphorylation, Jurkat (SHIP1−) [3]"
"Cc1cc(O)cc2c1[C@]1(C)CC[C@H]3C(C)(C)CCC[C@]3(C)[C@H]1CO2 [Compound No. 6, (1R,10R,11S,16S)-1,3,11,15,15-pentamethyl-8-oxatetracyclo[8.8.0.0^2,7.0^11,16]octadeca-2,4,6-trien-5-ol]",++ (31-50% inhibition),14,29,−
"CC1(C)CCC[C@]2(C)[C@H]3CS(=O)(=O)c4cc(O)cc(O)c4[C@]3(C)CC[C@@H]12 [Compound No. 28, (1R,10R,11S,16S)-3,5-dihydroxy-1,11,15,15-tetramethyl-8-thiatetracyclo[8.8.0.0^2,7.0^11,16]octadeca-2,4,6-triene-8,8-dione]",+++ (>50% inhibition),26,38,−
